The values that follow come from patent publication US20030073681A1, “2-substituted piperidines that are ligands for monoamine receptors and transporters” (priority 2001, published 2003).

Structures are written as SMILES. pIC50: −log10 of the molar value. Where only a bound is given, the exact number is not on record here.

Experiment [1] addresses T1, Human NE Receptor (Homo sapiens, UniProt P23975). Description: Functional activity for norephinephrine uptake inhibition in MDCK cell lines. Format: cell-based. To be noted: read-out: Functional Assays (EC50, nM) Human NE Receptor.
The target of experiment [2] is T2, Human DA Receptor (Homo sapiens, UniProt Q01959). Description: Dopamine functional activity in hDAT cell line. The format is cell-based. Further details: expressed in transfected cells. To be noted: read-out: Functional Assays (EC50, nM) Human DA Receptor.
T2 sequence (Q01959 whole entry): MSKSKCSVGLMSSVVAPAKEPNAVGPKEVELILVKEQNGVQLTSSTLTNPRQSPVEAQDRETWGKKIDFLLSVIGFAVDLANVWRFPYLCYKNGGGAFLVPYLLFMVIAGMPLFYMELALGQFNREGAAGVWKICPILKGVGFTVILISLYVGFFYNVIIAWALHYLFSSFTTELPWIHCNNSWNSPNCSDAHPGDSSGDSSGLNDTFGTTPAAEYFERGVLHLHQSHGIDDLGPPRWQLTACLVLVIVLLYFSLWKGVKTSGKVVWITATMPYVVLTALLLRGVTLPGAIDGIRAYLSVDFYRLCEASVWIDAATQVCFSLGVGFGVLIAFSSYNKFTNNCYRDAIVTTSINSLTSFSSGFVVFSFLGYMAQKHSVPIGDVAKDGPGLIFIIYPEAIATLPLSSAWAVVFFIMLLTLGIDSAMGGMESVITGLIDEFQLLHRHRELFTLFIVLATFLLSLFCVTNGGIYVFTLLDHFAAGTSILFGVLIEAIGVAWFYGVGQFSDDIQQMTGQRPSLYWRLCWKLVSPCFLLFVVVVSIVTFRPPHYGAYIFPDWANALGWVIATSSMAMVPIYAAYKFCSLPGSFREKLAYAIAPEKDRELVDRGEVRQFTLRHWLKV
Experiment [3] has as its target T3, Human 5-HT Receptor (Homo sapiens, UniProt P31645). Description: Functional activity for serotonin uptake inhibition in human HEK-293 cell lines. The format is cell-based. Further details: expressed in transfected cells; host or cells: HEK-293. The settings on record: read-out: Functional Assays (EC50, nM) Human 5-HT Receptor.
Experiment [4] deals with T1, Human NE Receptor. Description: Displacement of norephinephrine ligands in vitro (uptake profile). The format is binding.
In experiment [5] the target is T3, Human 5-HT Receptor. Description: Displacement of serotonin ligands in vitro (uptake profile). Format: binding.
In experiment [6] the target is T2, Human DA Receptor. Description: Displacement of dopamine ligands in vitro (uptake profile).

T1 sequence (P23975 whole entry): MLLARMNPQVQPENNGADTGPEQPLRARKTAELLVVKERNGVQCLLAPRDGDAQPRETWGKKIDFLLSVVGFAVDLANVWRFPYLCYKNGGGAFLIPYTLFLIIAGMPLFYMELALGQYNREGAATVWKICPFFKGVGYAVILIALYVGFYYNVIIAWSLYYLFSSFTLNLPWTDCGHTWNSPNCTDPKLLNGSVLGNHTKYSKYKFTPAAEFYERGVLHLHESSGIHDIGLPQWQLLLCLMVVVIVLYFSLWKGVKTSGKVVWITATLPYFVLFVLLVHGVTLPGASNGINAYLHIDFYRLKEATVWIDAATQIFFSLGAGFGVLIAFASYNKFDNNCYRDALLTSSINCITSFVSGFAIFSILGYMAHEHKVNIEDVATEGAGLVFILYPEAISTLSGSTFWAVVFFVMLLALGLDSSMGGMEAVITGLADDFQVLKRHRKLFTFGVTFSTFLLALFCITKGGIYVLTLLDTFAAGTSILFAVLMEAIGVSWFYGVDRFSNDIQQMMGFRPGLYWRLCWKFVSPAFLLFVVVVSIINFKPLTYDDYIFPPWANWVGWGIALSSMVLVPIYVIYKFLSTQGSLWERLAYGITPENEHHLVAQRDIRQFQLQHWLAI
T3 sequence (P31645 whole entry): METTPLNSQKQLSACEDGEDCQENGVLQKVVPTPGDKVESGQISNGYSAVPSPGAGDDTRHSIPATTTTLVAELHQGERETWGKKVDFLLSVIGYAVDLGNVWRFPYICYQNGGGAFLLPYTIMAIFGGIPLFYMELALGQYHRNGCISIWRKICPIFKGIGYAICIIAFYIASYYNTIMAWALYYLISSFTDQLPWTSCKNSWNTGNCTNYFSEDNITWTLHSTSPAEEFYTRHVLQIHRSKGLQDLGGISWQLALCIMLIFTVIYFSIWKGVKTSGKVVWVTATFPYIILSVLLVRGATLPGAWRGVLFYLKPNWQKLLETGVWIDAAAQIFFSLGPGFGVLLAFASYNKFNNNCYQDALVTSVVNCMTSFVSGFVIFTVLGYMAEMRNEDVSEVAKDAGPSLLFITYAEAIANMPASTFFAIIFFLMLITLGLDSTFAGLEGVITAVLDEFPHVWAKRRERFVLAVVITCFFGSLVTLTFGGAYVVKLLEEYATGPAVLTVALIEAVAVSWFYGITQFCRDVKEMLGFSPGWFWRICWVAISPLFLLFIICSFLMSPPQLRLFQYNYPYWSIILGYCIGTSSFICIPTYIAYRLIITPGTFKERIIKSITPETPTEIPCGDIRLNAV

A word on the EC50: it is the midpoint of the concentration-response curve. With `O=C(CCCN1CCCCC1CCOc1ccc(C(F)(F)F)cc1)c1ccc(F)cc1` (stereo not drawn) [Compound 32, 1-(4-Fluoro-phenyl)-4-{2-[2-(4-trifluoromethyl-phenoxy)-ethyl]-piperidin-1-yl}-butan-1-one], the EC50 at Human NE Receptor [1] is over 1000 nM; at Human DA Receptor [2] it was under 1000 nM; at Human 5-HT Receptor [3], under 1000 nM.

Usually IC50 stands for the point on the concentration scale where inhibition reaches its midpoint. A higher IC50 goes with a need for much substance. A word on the pIC50: it is the negative decadic logarithm of the IC50, by convention in mol/L. Low values mean a large IC50, high ones a small IC50. Regarding `FC(F)(F)c1ccc(OCCC2CCCCN2CC2(c3ccc(Cl)cc3)CCC2)cc1` (stereo not drawn) [Compound 7, 1-[1-(4-Chloro-phenyl)-cyclobutylmethyl]-2-[2-(4-trifluoromethyl-phenoxy)-ethyl]-piperidine], the values for the IC50 at Human NE Receptor [4] and at Human 5-HT Receptor [5] were under 1000 nM and over 1000 nM, respectively. For the same compound, the pIC50 at Human DA Receptor [6] is over 7.00.

Turning to `CN1CCN(CC(O)c2ccc(Cl)cc2)C(CCc2ccc(C(F)(F)F)cc2)C1` (stereo not drawn) [Compound 30, 1-(4-Chloro-phenyl)-2-{4-methyl-2-[2-(4-trifluoromethyl-phenyl)-ethyl]-piperazin-1-yl}-ethanol], the figures for the concentration giving a half-maximal response (EC50) at Human NE Receptor [1], at Human DA Receptor [2] and at Human 5-HT Receptor [3] were over 1000 nM, over 1000 nM and under 1000 nM, respectively.

As to `CC(CN1CCCCC1CCOc1ccc(C(F)(F)F)cc1)C(=O)c1ccc(Cl)cc1` (stereo not drawn) [Compound 13, 1-(4-Chloro-phenyl)-2-methyl-3-{2-[2-(4-trifluoromethyl-phenoxy)-ethyl]-piperidin-1-yl}-propan-1-one], the IC50 on Human NE Receptor [4] and on Human 5-HT Receptor [5] was over 1000 nM throughout. For the same compound, the pIC50 on Human DA Receptor [6] was under 6.00.

On to `CC(CN1CCCCC1CCOc1ccc(C(F)(F)F)cc1)C(O)c1ccc(Cl)cc1` (stereo not drawn) [Compound 14, 1-(4-Chloro-phenyl)-2-methyl-3-{2-[2-(4-trifluoromethyl-phenoxy)-ethyl]-piperidin-1-yl}-propan-1-ol], for which the IC50 at Human NE Receptor [4] and at Human 5-HT Receptor [5] was under 1000 nM in each case. The negative logarithm of the IC50 (pIC50) on Human DA Receptor [6] is over 7.00.

In the case of `O[C@H](CN1CCCCC1CCOc1ccc(C(F)(F)F)cc1)C1(c2ccc(Cl)cc2)CCC1` (stereo partly drawn) [Compound 9, 1-[1-(4-Chloro-phenyl)-cyclobutyl]-2-{2-[2-(4-trifluoromethyl-phenoxy)-ethyl]-piperidin-1-yl}-S-ethanol], the concentration for half-maximal inhibition (IC50) on Human NE Receptor [4] was under 100 nM; at Human 5-HT Receptor [5] it was under 1000 nM. For the same compound, the EC50 at Human NE Receptor [1] is under 10 nM; at Human DA Receptor [2], under 100 nM; on Human 5-HT Receptor [3], under 100 nM. The pIC50 at Human DA Receptor [6] was over 8.00.

Consider `OC(CN1CCCCC1CCOc1ccc(C(F)(F)F)cc1)C1(c2ccc(Cl)c(Cl)c2)CCC1` (stereo not drawn) [Compound 18, 1-[1-(3,4-Dichloro-phenyl)-cyclobutyl]-2-{2-[2-(4-trifluoromethyl-phenoxy)-ethyl]-piperidin-1-yl}-ethanol], for which the IC50 is under 100 nM on Human NE Receptor [4] and under 1000 nM at Human 5-HT Receptor [5]. The compound also showed a negative logarithm of the IC50 (pIC50) at Human DA Receptor [6] of over 8.00.
